Like-named read-outs stand apart in the source and are kept apart here.
Tests used:
Assay type in all cases: cell-based, human
t-HSC/Cl-6 cells [1] = test: MTT cell proliferation assay, activated t-HSC/Cl-6 cells; conditions: mean ± SD, read-out: Inhibitory activity (IC50) in activated t-HSC/Cl-6 cells
Experimental: (§1) The cell viability was assessed with the MTT assay. The human hepatic stellate cells (t-HSC/Cl-6) and human normal liver cells (LO2) bought from the Cell Bank of Chinese Academy of Sciences (Shanghai, China) were seeded in 96-well plates for 24 h and cultured with high glucose including 10% fetal bovine serum, and 1% penicillin/streptomycin were used to culture cells at 37 °C under 5% CO2 and then were treated with serial dilutions of the compounds (25, 50, 100, 200, 400 μM) for another 36 h. For MTT assay, ten microliters of MTT reagent ([…]) was added to each well after removing all the liquid in the wells, and incubated at 37 °C in a humidified atmosphere of 5% CO2 air for 4 h. At the end of incubation, the growth medium was removed and replaced with 100 μL of DMSO at room temperature and agitating on a vortex for 20 min. The absorbance was determined at 490 nm as reference on a Bio-Rad micro-plate reader.

LO2 cells [2] = test: MTT cell proliferation assay, LO2 normal liver cells; conditions: for IC50: 36 h, MTT, read-out: Inhibitory activity (IC50) in LO2 cells
Experimental: as §1

t-HSC/C1-6 cells = test: Cell cycle analysis by flow cytometry (propidium iodide); conditions: 50 μM compound, 36 h; control group 1.04%
Experimental: The cell cycle analysis was performed using a previous method. The t-HSC/C1-6 cells were cultured in the presence of 50 μM compound 19 and DMSO for 12 h, 24 h, and 36 h. Briefly, treated and untreated cells were trypsinized, harvested, and washed with PBS. Then the cells were fixed with 75% ethanol overnight at […]. Fixed cells were washed with PBS and stained with propidium iodide solution in the dark for 4 h. Cell cycle distribution was analyzed using FACScan (Becton Dickinson Immunocytometry Systems, San Jose, CA, USA).

t-HSC/Cl-6 cells [3] = test: Cell apoptosis analysis: cell morphology and DAPI nuclear staining, t-HSC/Cl-6 cells; conditions: 36 h
Experimental: (§2) For cell morphology analysis, t-HSC/C1-6 cells and LO2 cells were grown in 6-well plates. After 24 h, compound 19 was incubated with the cells for another 36 h and 0.1% DMSO was used to culture control cells. […] Then the cells were rinsed with PBS and resuspended in 1 mL of 0.1% DAPI prepared in methanol for 15 min. PBS was used to wash the cells three times. Nuclear morphology was observed by a fluorescent microscope (Olympus BH-2, Osaka, Japan).

LO2 cells [4] = test: Cell apoptosis analysis: cell morphology and DAPI nuclear staining, LO2 cells; conditions: 36 h
Experimental: as §2

t-HSC/Cl-6 cells [5] = test: Western blotting of cell cycle, PI3K/Akt and caspase proteins
Experimental: RIPA lysis buffer was used to extract total cellular proteins, and the protein concentration was determined by bicinchoninic acid. Protein samples (20 μg/lane) were loaded onto 10% SDS–PAGE gels for electrophoresis and then the transmembrane was conducted. After that, blocking of polyvinylidene fluoride (PVDF) membrane was carried out using 5% bovine serum albumin in Tris-buffered saline Tween-20 (TBST) buffer for 1 h, subsequently probing with a primary antibody (1:1000 dilution), such as p-PI3K, p-Akt, Cl-caspase-3, Cl-caspase-9, Cl-PARP, CDK4, Cyclin D1, or P21, at 4 °C overnight. Then, TBTS was used to wash the membrane. The PVDF membranes were incubated with the secondary antibody (1:5000 dilution) for 2 h. X-ray films were employed to develop the signals.

[6] = Rattus norvegicus, T-HSC/Cl-6, 36 h
[7] = dose-dependent manner as printed

Compound: CC(C)=CCCC(O)(COC1OC(CO)C(O)C(O)C1O)C1CCC2(C)C1CCC1C3(C)CCC(OC4OC(CO)C(O)C(OC5OCC(O)C(O)C5O)C4OC4OCC(O)C(O)C4O)C(C)(C)C3CCC12C (centres unmarked) [Compound 1]
- IC50 (t-HSC/Cl-6 cells [1]; [6]): > 200 µM
- IC50 (LO2 cells [2]; Homo sapiens, L02): > 200 µM

Compound: CC(C)=CCCC(O)(CO)C1CCC2(C)C1CCC1C3(C=O)CCC(OC4OCC(O)C(O)C4OC4OC(C)C(O)C(O)C4O)C(C)(C)C3CCC12C (centres unmarked) [Compound 2]
- IC50 (t-HSC/Cl-6 cells [1]; [6]): 50.4 ± 1.4 µM
- IC50 (LO2 cells [2]; Homo sapiens, L02): > 200 µM

Compound: C=C(C)OCC1OC(OC2CCC3(C)C(CCC4(C)C3CCC3C(C(O)(CCC=C(C)C)COC5OC(CO)C(O)C(O)C5O)CCC34C)C2(C)C)C(OC2OC(C)C(O)C(O)C2O)C(OC2OCC(O)C(O)C2O)C1O (centres unmarked) [Compound 3]
- IC50 (t-HSC/Cl-6 cells [1]; [6]): > 200 µM
- IC50 (LO2 cells [2]; Homo sapiens, L02): > 200 µM

Compound: C=C(C)OCC1OC(OC2CCC3(C)C(CCC4(C)C3CCC3C(C5(O)CC(C=C(C)C)OC5=O)CCC34C)C2(C)C)C(OC2OC(C)C(O)C(O)C2O)C(OC2OCC(O)C(O)C2O)C1O (centres unmarked) [Compound 4]
- IC50 (t-HSC/Cl-6 cells [1]; [6]): 126 ± 9.7 µM
- IC50 (LO2 cells [2]; Homo sapiens, L02): > 200 µM

Compound: C=C(C)OCC1OC(OC2CCC3(C)C(CCC4(C)C3CCC3C(C5(O)CC(C=C(C)C)OC5O)CCC34C)C2(C)C)C(OC2OC(C)C(O)C(O)C2O)C(OC2OCC(O)C(O)C2O)C1O (centres unmarked) [Compound 5]
- IC50 (t-HSC/Cl-6 cells [1]; [6]): > 200 µM
- IC50 (LO2 cells [2]; Homo sapiens, L02): > 200 µM

Compound: CC(C)=CC1CC(O)(C2CCC3(C)C2CCC2C4(C)CCC(OC5OC(CO)C(O)C(OC6OCC(O)C(O)C6O)C5OC5OC(C)C(O)C(O)C5O)C(C)(C)C4CCC23C)C(=O)O1 (centres unmarked) [Compound 6]
- IC50 (t-HSC/Cl-6 cells [1]; 36 h): 99.9 ± 4.5 µM
- IC50 (LO2 cells [2]): > 200 µM

Compound: CC(C)=CCCC(O)(CO)C1CCC2(C)C1CCC1C3(C)CCC(OC4OC(CO)C(O)C(OC5OCC(O)C(O)C5O)C4OC4OC(C)C(O)C(O)C4O)C(C)(C)C3CCC12C (centres unmarked) [Compound 7]
- IC50 (t-HSC/Cl-6 cells [1]; [6]): 152 ± 7.4 µM
- IC50 (LO2 cells [2]; Homo sapiens, L02): > 200 µM

Compound: CC(C)=CC1CC(O)(C2CCC3(C)C2CCC2C4(C)CCC(OC5OC(CO)C(O)C(OC6OCC(O)C(O)C6O)C5OC5OC(C)C(O)C(O)C5O)C(C)(C)C4CCC23C)C(O)O1 (centres unmarked) [Compound 8]
- IC50 (t-HSC/Cl-6 cells [1]; [6]): 68.8 ± 3.2 µM
- IC50 (LO2 cells [2]; Homo sapiens, L02): > 200 µM

Compound: CC(C)=CC1CC(O)(C2CCC3(C)C2CCC2C4(C)CCC(OC5OC(CO)C(O)C(OC6OCC(O)C(O)C6O)C5OC5OC(C)C(O)C(O)C5O)C(C)(C)C4CCC23C)C(=O)O1 (centres unmarked) [Compound 9]
- IC50 (t-HSC/Cl-6 cells [1]; [6]): 114 ± 7.8 µM
- IC50 (LO2 cells [2]; Homo sapiens, L02): > 200 µM

Compound: CC(C)=CCCC(O)(COC1OC(CO)C(O)C(O)C1O)C1CCC2(C)C1CCC1C3(C=O)CCC(OC4OCC(O)C(OC5OC(CO)C(O)C(O)C5O)C4OC4OC(C)C(O)C(O)C4O)C(C)(C)C3CCC12C (centres unmarked) [Compound 10]
- IC50 (t-HSC/Cl-6 cells [1]; [6]): > 200 µM
- IC50 (LO2 cells [2]; Homo sapiens, L02): > 200 µM

Compound: CC(C)=CCCC(O)(CO)C1CCC2(C)C1CCC1C3(C=O)CCC(OC4OCC(O)C(OC5OCC(O)C(O)C5O)C4OC4OC(C)C(O)C(O)C4O)C(C)(C)C3CCC12C (centres unmarked) [Compound 11]
- IC50 (t-HSC/Cl-6 cells [1]; [6]): 43.6 ± 2.7 µM
- IC50 (LO2 cells [2]; Homo sapiens, L02): > 200 µM

Compound: CC(C)=CCCC(O)(COC1OC(CO)C(O)C(O)C1O)C1CCC2(C)C1CCC1C3(C)CCC(OC4OC(CO)C(O)C(OC5OCC(O)C(O)C5O)C4OC4OC(C)C(O)C(O)C4O)C(C)(C)C3CCC12C (centres unmarked) [Compound 12]
- IC50 (t-HSC/Cl-6 cells [1]; [6]): > 200 µM
- IC50 (LO2 cells [2]; Homo sapiens, L02): > 200 µM

Compound: CC(C)=CCCC(O)(COC1OC(CO)C(O)C(O)C1O)C1CCC2(C)C1CCC1C3(C)CCC(OC4OC(CO)C(O)C(OC5OCC(O)C(O)C5O)C4OC4OC(C)C(O)C(O)C4O)C(C)(C)C3CCC12C (centres unmarked) [Compound 13]
- IC50 (t-HSC/Cl-6 cells [1]; 36 h): 106 ± 2.6 µM
- IC50 (LO2 cells [2]): > 200 µM

Compound: CC(C)=CCCC(O)(COC1OC(CO)C(O)C(O)C1O)C1CCC2(C)C1CCC1C3(CO)CCC(OC4OC(CO)C(O)C(OC5OCC(O)C(O)C5O)C4OC4OC(C)C(O)C(O)C4O)C(C)(C)C3CCC12C (centres unmarked) [Compound 14]
- IC50 (t-HSC/Cl-6 cells [1]; [6]): > 200 µM
- IC50 (LO2 cells [2]; Homo sapiens, L02): > 200 µM

Compound: CC(C)=CCCC(O)(COC1OC(CO)C(O)C(O)C1O)C1CCC2(C)C1CCC1C3(CO)CCC(OC4OCC(O)C(OC5OCC(O)C(O)C5O)C4OC4OC(C)C(O)C(O)C4O)C(C)(C)C3CCC12C (centres unmarked) [Compound 15]
- IC50 (t-HSC/Cl-6 cells [1]; [6]): > 200 µM
- IC50 (LO2 cells [2]; Homo sapiens, L02): > 200 µM

Compound: CCCCOC1OC(C=C(C)C)CC1(O)C1CCC2(C)C1CCC1C3(C)CCC(OC4OCC(O)C(OC5OCC(O)C(O)C5O)C4OC4OC(C)C(O)C(O)C4O)C(C)(C)C3CCC12C (centres unmarked) [Compound 16]
- IC50 (t-HSC/Cl-6 cells [1]; [6]): 44.7 ± 1 µM
- IC50 (LO2 cells [2]; Homo sapiens, L02): > 200 µM

Compound: CC(=O)OCC1OC(OC2CCC3(C)C(CCC4(C)C3CCC3C(C5(O)CC(C=C(C)C)OC5=O)CCC34C)C2(C)C)C(OC2OC(C)C(O)C(O)C2O)C(OC2OCC(O)C(O)C2O)C1O (centres unmarked) [Compound 17]
- IC50 (t-HSC/Cl-6 cells [1]; [6]): 66.1 ± 3.8 µM
- IC50 (LO2 cells [2]; Homo sapiens, L02): > 200 µM

Compound: C=C(C)C=CCC(O)(COC1OC(CO)C(O)C(O)C1O)C1CCC2(C)C1CCC1C3(C)CCC(OC4OC(CO)C(O)C(OC5OCC(O)C(O)C5O)C4OC4OCC(O)C(O)C4O)C(C)(C)C3CCC12C (centres unmarked) [Compound 18]
- IC50 (t-HSC/Cl-6 cells [1]; [6]): 58 ± 2.9 µM
- IC50 (LO2 cells [2]; Homo sapiens, L02): > 200 µM

Compound: CCCCOC1OC(C=C(C)C)CC1(O)C1CCC2(C)C1CCC1C3(C)CCC(OC4OC(CO)C(O)C(OC5OCC(O)C(O)C5O)C4OC4OC(C)C(O)C(O)C4O)C(C)(C)C3CCC12C (centres unmarked) [Compound 19]
- IC50 (t-HSC/Cl-6 cells [1]; [6]): 28.1 ± 2 µM
- IC50 (LO2 cells [2]; Homo sapiens, L02): > 200 µM
- Cytotoxicity to LO2 cells (LO2 cells [2]; in words): nontoxic
- Cells in the subG1 phase (t-HSC/C1-6 cells): 38.63%
- Nuclear morphology of t-HSC/Cl-6 cells (DAPI staining) (t-HSC/Cl-6 cells [3]): Typical apoptotic nuclear changes were observed
- Cell morphology (apoptosis) of t-HSC/Cl-6 cells (t-HSC/Cl-6 cells [3]; phase contrast microscopy): apoptotic bodies and cell shrinkage were observed
- Nuclear morphology of LO2 cells (DAPI staining) (LO2 cells [4]): did not appear to have any specific effect
- Cell morphology of LO2 cells (LO2 cells [4]; phase contrast microscopy): no shrinkage was seen
- cyclin D1 expression (t-HSC/Cl-6 cells [5]): decreased
- p21 level (t-HSC/Cl-6 cells [5]): significant accumulation
- Expression of phosphorylated-Akt (t-HSC/Cl-6 cells [5]; as time increased): inhibited
- Expression of phosphorylated-PI3K (t-HSC/Cl-6 cells [5]; as time increased): inhibited
- Expression level of cleaved caspase-3 (t-HSC/Cl-6 cells [5]; [7]): activated
- Expression level of cleaved caspase-9 (t-HSC/Cl-6 cells [5]; [7]): activated

Reference: publication PMC8158484, “Activity Components from Gynostemma pentaphyllum for Preventing Hepatic Fibrosis and of Its Molecular Targets by Network Pharmacology Approach” (Molecules, 2021)
